In patent US5962533A, “Hydroxy polyamines” (priority 1996, dated 1999):
Several values for one entry are separate records, joined by “and”; a condition that tells them apart may be missing. Equal values may be shown once. Where a name gives a salt, the structure may show the parent alone. Read-outs that look alike come from different tables or passages of the source.

What was measured:
[1] = test system: castor oil-induced diarrhea; assay: Castor oil-induced diarrhea; assay type: in vivo, rat
Source text: Castor Oil-Induced Diarrhea. Male Sprague-Dawley rats (350-400 g) were fasted overnight in hanging wire cages and allowed free access to water.

[2] = Acute toxicity, single intraperitoneal injection; details: 325 mg/kg intraperitoneal, five female CD-1 mice
[3] = Metabolism of (HO)2 DEHSPM v. DEHSPM in mouse liver and kidney (HPLC); assay type: in vivo
Description: Metabolism of (HO)2 DEHSPM v. DEHSPM in Mouse Liver and Kidney. […] In ease case, animals were sacrificed for HPLC analysis one day after the final dose.
HPLC Analysis of Polyamines. Various tissues including the liver and kidney were prepared for HPLC analysis of polyamine content. In order to facilitate their handling, the organs were submerged in liquid nitrogen. Once frozen and weighed, the tissues were homogenized (Tissuemizer, Tekmar, Cincinnati, Ohio) in 1.2N perchloric acid (containing 1,7-diaminoheptane internal standard) in a 1:20 (w/v) ratio. The tissue homogenates were then freeze-thawed three times and stored in a -70° C. freezer until HPLC analysis was performed.
Each chromatographic assay included calibration standards which were treated in the same manner as the samples. […] The concentration of each polyamine was calculated from the peak area by calibration curves obtained by non-weighted least squares linear regression. Peak area and linear regression calculations were performed on a Macintosh Centris 650 with Rainin Dynamax HPLC Method Manager software (Rainin Instrument Co., Ridgefield, N.J.).

[4] = Chronic toxicity, one dose per day for five days; assay type: in vivo
Description: In the chronic toxicity regimen, mice were administered the polyamine analogue as one dose per day for five days. Appetite, weight and overall physical appearance were recorded at the time of each injection. After the treatment regimen had been completed, the animals were observed an additional 10 days. The chronic toxicity dosing regimen was set up so that at least one test group was presented with a high fraction of lethalities.

L1210 cells [5] = assay: L1210 growth inhibition, IC50 determinations; assay type: cell-based, Murine
Description: IC50 Determinations. Cells were grown in 25 cm^2 tissue culture flasks in a total volume of 10 ml. Cultures were treated while in logarithmic growth (0.5-1.0×10^5 cells/ml) with the polyamine derivative diluted in sterile water and filtered through a 0.2 μm filter.
After the indicated time periods, cells were removed from the incubator for counting. Cell number was determined by electronic particle counting (Model ZF coulter counter, Coulter Electronics, Hialeah, Fla.) and confirmed periodically with hemocytometer measurements.
The percentage of control growth was determined as follows: [formula]

[6] = test system: polyamine transport apparatus; assay: Competition with radiolabeled spermidine for uptake into L1210 cells (Ki); assay type: cell-based, Murine; details: L1210 cells, estimated from Lineweaver-Burke plots, read-out: Ki, [3H]-spermidine transport
Description: The same cell line was utilized to evaluate the tetraamines's competition with radiolabeled spermidine for the polyamine uptake apparatus (Ki). The Ki values here are the concentrations of drugs required to inhibit the uptake of radioactive spermidine transport by 50% (Table 1).
Uptake Determinations. The polyamine derivatives were studied for their ability to compete with [^3 H]SPD or [^14 C]SPD for uptake into L1210 leukemia cells in vitro. Cell suspensions were incubated in 1 ml of RPMI-1640 containing 1, 2, 4, 6, 8 and 10 μm radiolabeled SPD alone or with the additional presence of 10, 25 and 50 μm polyamine analogue for 20 minutes at 37° C. At the end of the incubation period, tubes were centrifuged at 900 g for 5 minutes at 0-4° C. The pellet was washed twice with 5 ml of cold RPMI-1640 containing 1 mm SPD, dissolved in 200 μl of 1N NaOH at 60° C. for 1 hour, and neutralized with 1N HCl. The material was transferred to a vial for scintillation counting.

L1210 cells [7] = assay: Polyamine pool analysis in analogue-treated L1210 cells (HPLC); assay type: cell-based, Murine; details: for PUT level relative to untreated controls / SPD level relative to untreated controls / SPM level relative to untreated controls: L1210 cells, control = 100%
Description: Polyamine Pool Analysis. While in logarithmic growth, cells were treated with the polyamine derivatives. […] Each supernatant was frozen at -20° C. until analysis by HPLC.

[8] = 24 h after regimen, normalized for 30 g mouse
[9] = liver and kidneys, 24 h after regimen, 30 g mouse
[10] = mouse, one day after subchronic equimolar i.p. regimen
[11] = 3.5 μm analogue, listed as (OH)2 DEHSPM

## CCNCC[C@@H](O)CNCCCCNC[C@H](O)CCNCC [(HO)2 DEHSPM, N^1,N^14 -Diethyl-3(R),12(R)-dihydroxyhomospermine tetrahydrochloride]
[1]; 1 mg/kg, rat
  prevention of castor oil-induced diarrhea: not an effective anti-diarrheal agent
[1]; 2.5 mg/kg, rat, six hour observation
  prevention of castor oil-induced diarrhea: partially effective
[1]; 5 mg/kg subcutaneous, rat, six hour assay
  prevention of castor oil-induced diarrhea: as effective as DEHSPM at preventing diarrhea
[1]; 18 kg/mg, rat
  prevention of castor oil-induced diarrhea: effectively prevented the onset of diarrhea
[1]; Rattus norvegicus, sc, read-out: minimum effective dose for prevention of diarrhea
  minimal effective dose: 5 mg/kg
[1]; subcutaneous injection 30 minutes before castor oil 5 ml/kg, rat
  stool output / diarrhea during 6 hour assay (FIG. 8): virtually no stool output
[2]
  deaths after single dose: Three of the five animals died
[3]; [8]
  % of total dose present as total drug + metabolite, Kidneys: 4.04%
  % of total dose present as total drug + metabolite, Liver: 5.96%
  % of total dose present as unmetabolized parent drug, Kidneys: .357 ± 0.34%
  % of total dose present as unmetabolized parent drug, Liver: 3.39 ± 0.48%
  Amount of total dose present as dideethylated metabolite HSPM/(HO)2 HSPM, Kidneys: 0.030 µmol
  Amount of total dose present as dideethylated metabolite HSPM/(HO)2 HSPM, Liver: 0.166 µmol
  Amount of total dose present as total drug + metabolite, Kidneys: 0.261 µmol
  Amount of total dose present as total drug + metabolite, Liver: 0.385 µmol
  Amount of total dose present as unmetabolized parent drug, Kidneys: 0.231 µmol
  Amount of total dose present as unmetabolized parent drug, Liver: 0.219 µmol
[3]; [9]
  % of total dose present as total drug + metabolite, Both Tissues: 10.01%
  % of total dose present as unmetabolized parent drug, Both Tissues: 6.96%
  Amount of total dose present as dideethylated metabolite HSPM/(HO)2 HSPM, Both Tissues: 0.196 µmol
  Amount of total dose present as total drug + metabolite, Both Tissues: 0.646 µmol
  Amount of total dose present as unmetabolized parent drug, Both Tissues: 0.450 µmol
[3]; [10]
  level of unchanged drug in kidney: 481±46 nmol/g wet weight
  level of unchanged drug in liver: 83.6±11.7 nmol/g wet weight and 84±12 nmol/g wet weight
[4]; 70 mg/kg per day×5 days
  # deaths/# animals: 0/5
[4]; 80 mg/kg per day×5 days
  # deaths/# animals: 0/5
[4]; 90 mg/kg per day×5 days
  # deaths/# animals: 0/10
[4]; 100 mg/kg per day×5 days
  # deaths/# animals: 1/5
[4]; 120 mg/kg per day×5 days
  # deaths/# animals: 2/5
[4]; 20, 40 and 60 mg/kg per day×5 days, groups of six animals
  deaths: No deaths
[4]; mice
  LD40: 120 mg/kg per day×5 days
[4]; mouse, in vivo
  necropsy conclusion in severely affected animals: potently blocks gastric transport
[4]; mouse, in vivo, mice, subchronic regimen, read-out: LD50 estimated from the slope of the toxicity curve
  LD50: 130 mg/kg
L1210 cells [5]; Mus musculus, L1210, 96 h, read-out: IC50 96 h, L1210 cells, 96 h
  IC50: 70 nM
L1210 cells [5]; Mus musculus, read-out: IC50 48 h, L1210 cells, 48 h
  IC50: 600 nM
L1210 cells [5]; read-out: IC50 96 h, L1210 cells, 96 h
  IC50: 50 to 90 nM
[6]; listed as (OH)2 -DEHSPM
  Ki: 1800 nM
[6]
  Ki: 2000 nM and 1800 nM
L1210 cells [7]; 0.7 μm analogue
  PUT level relative to untreated controls: 45%
  SPD level relative to untreated controls: 57%
  SPM level relative to untreated controls: 96%
L1210 cells [7]; 3.5 μm analogue
  PUT level relative to untreated controls: below detectable limits
  SPD level relative to untreated controls: below detectable limits
  SPM level relative to untreated controls: 60%
L1210 cells [7]; [11]
  PUT level relative to untreated controls: 0%
  SPD level relative to untreated controls: 0%
  SPM level relative to untreated controls: 68%
L1210 cells [7]; in vitro conditions
  N-deethylation by L1210 cells: do not N-deethylate
